Columns and labels:
Assay in all cases: relative viability (nuclei count vs DMSO), 5 days (fraction); higher = more cells survive
[1] = compound: COc1cc(Nc2ncc(F)c(Nc3ccc4c(n3)NC(=O)C(C)(C)O4)n2)cc(OC)c1OC [R406] + COc1cccc2cc(-c3nc([C@H]4CC[C@H](C(=O)O)CC4)n4ncnc(N)c34)[nH]c12 [OSI-027] (partner 0.5 µM)
Method in brief: (§1)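 Lung cancer cell lines were seeded in 1536-well plates and dosed by pin tool the next day, with either a single drug or a fixed anchor-drug dose combined with five library-drug doses (not always all listed) spaced in √10 steps. Five days later, one step fixed the cells and stained their nuclei (final 0.05% Triton X-100, 1% formaldehyde, 1 ug/ml Hoechst), and nuclei were counted on 4× images. Relative viability is the nuclei count in treated wells divided by the count in vehicle wells, and each value is the median of duplicate plates.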

[2] = compound: COc1cc(Nc2ncc(F)c(Nc3ccc4c(n3)NC(=O)C(C)(C)O4)n2)cc(OC)c1OC [R406] + N=C(N)NC(=N)NCCc1ccccc1 [Phenformin] (partner 250 µM)
Method in brief: as §1

[3] = compound: COc1cc(Nc2ncc(F)c(Nc3ccc4c(n3)NC(=O)C(C)(C)O4)n2)cc(OC)c1OC [R406] + O=C(c1cc(Cc2n[nH]c(=O)c3ccccc23)ccc1F)N1CCN(C(=O)C2CC2)CC1 [Olaparib] (partner 8 µM)
Method in brief: as §1

[4] = compound: O=C(/C=C/c1cccnc1)NCCCCC1CCN(C(=O)c2ccccc2)CC1 [Daporinad] + CCNC(=O)c1noc(-c2cc(C(C)C)c(O)cc2O)c1-c1ccc(CN2CCOCC2)cc1 [Luminespib] (partner 0.01 µM)
Method in brief: as §1

UMC-11 was tested, and the relative viability ([1]; first compound 0.08 µM) was 0.429, the relative viability ([1]; first compound 0.253 µM) was 0.517 and the relative viability ([1]; first compound 0.8 µM) was 0.488. The relative viability ([1]; first compound 2.53 µM) was 0.463, the relative viability ([1]; first compound 8 µM) was 0.253 and the relative viability ([2]; first compound 0.08 µM) was 0.356. For the same cell line, the relative viability ([2]; first compound 0.253 µM) was 0.35, the relative viability ([2]; first compound 0.8 µM) was 0.368 and the relative viability ([2]; first compound 2.53 µM) was 0.28. For the same cell line, the relative viability ([2]; first compound 8 µM) was 0.19, the relative viability ([3]; first compound 0.08 µM) was 0.392 and the relative viability ([3]; first compound 0.253 µM) was 0.348. For the same cell line, the relative viability ([3]; first compound 0.8 µM) was 0.342, the relative viability ([3]; first compound 2.53 µM) was 0.363 and the relative viability ([3]; first compound 8 µM) was 0.199. It also gave a relative viability ([4]; first compound 0.0005 µM) of 1.09, a relative viability ([4]; first compound 0.001581 µM) of 1.04 and a relative viability ([4]; first compound 0.005 µM) of 1.26. For the same cell line, the relative viability ([4]; first compound 0.01581 µM) was 1.16.
